Test results from BindingDB's records for doi:10.1021/acsmedchemlett.8b00255 (2018).

Target: T1, Interleukin-23 receptor (Homo sapiens, UniProt Q5VWK5)
T1 sequence (Q5VWK5 whole entry): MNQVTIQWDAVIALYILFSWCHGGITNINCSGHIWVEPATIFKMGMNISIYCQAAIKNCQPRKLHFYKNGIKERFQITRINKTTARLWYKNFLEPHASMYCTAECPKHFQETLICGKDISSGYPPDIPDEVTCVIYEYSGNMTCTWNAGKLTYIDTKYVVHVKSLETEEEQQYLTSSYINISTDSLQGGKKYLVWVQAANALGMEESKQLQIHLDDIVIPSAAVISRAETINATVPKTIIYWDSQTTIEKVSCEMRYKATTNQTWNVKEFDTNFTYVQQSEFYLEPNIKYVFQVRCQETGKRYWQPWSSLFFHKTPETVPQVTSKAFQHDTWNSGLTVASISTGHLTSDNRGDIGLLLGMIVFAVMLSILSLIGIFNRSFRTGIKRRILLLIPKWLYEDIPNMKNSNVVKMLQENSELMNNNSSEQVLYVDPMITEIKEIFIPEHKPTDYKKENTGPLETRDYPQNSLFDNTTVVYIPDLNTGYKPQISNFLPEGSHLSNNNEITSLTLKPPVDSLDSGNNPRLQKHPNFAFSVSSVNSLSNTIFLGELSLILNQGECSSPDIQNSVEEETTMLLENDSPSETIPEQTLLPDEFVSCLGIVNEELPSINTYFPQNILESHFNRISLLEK
Test: Binding affinity to recombinant human flag/His-tagged IL-23R (1 to 353 residues) expressed in HEK293F cells assessed as dissociation rate constant measured over 90 secs by surface plasmon resonance assay

koff: 0.0274 s⁻¹
Structure (SMILES): CC(=O)N[C@H]1CCSC[C@@H](C(=O)N[C@@H](Cc2ccc(OCCN)cc2)C(=O)N[C@@H](Cc2c[nH]c3ccccc23)C(=O)N[C@@](C)(CCCCN)C(=O)N[C@@H](CCC(=O)O)C(=O)N[C@@H](CC(N)=O)C(=O)NCC(N)=O)NC(=O)[C@H](CCC(N)=O)NC(=O)[C@H](Cc2c[nH]c3ccccc23)NC(=O)[C@H]([C@@H](C)O)NC(=O)[C@H](CCC(N)=O)NC1=O
